Measured values taken from US10221439B2, “Sensors, methods and kits for detecting nicotinamide adenine dinucleotides” (Max-Planck-Gesellschaft zur Förderung der Wissenschaften …, priority 2015, dated 2019).
Entries after “also recorded” stand apart in the source; their conditions may differ.

Tests used:
U2OS cells = experiment: Live cells perfusion experiment with sensor expressed in the cytosol; type: cell-based; settings: for sensor response (ratio TMR/SiR, NADPH/NADP^+): 100 μM perfused on U2OS cells
Protocol: Semi-stable U2OS (SPR-Halo-p30-SNAP cloned in a pEBTet vector; see Bach et al. FEBS J. 2007 Feb.; 274(3):783-90 for the description of pEBTet) freshly trypsinated are diluted 5-fold with DMEM GlutaMax+10% FBS and 1 μg/mL puromycin. They are plated (2 mL) in previously sterilized and poly-L-ornithine coated (1 h incubation) glass coverslips (20×20 mm, VWR) in 12-well plate (TPP). On day 2, the expression is induced by 100 ng/mL doxycycline for ˜24 h. […] On day 4, the cells are washed 3 times with DMEM GlutaMax+10% FBS without phenol red (10 min incubation, 37° C., 5% CO2 between each step). After 30 min of incubation, the cells are ready for imaging. Glass coverslips with labelled U2OS cells were transferred to a Cytoo chamber (44×34×10 mm). Gravity fed perfusion of the chamber was performed at a flow rate of 1 mL/min. Time-course experiments of sensor imaging were performed using a Leica LAS AF 7000 wide-field microscope equipped with a 63× plan Apochromat 1.40 NA oil immersion objective lens. A xenon arc lamp was used for imaging of the U2OS cells. For each frame, the two channels (donor and FRET) were measured consecutively with an interval of 10 s between the two emission channels. The filter set Cy3/Cy5 was used for FRET ratio imaging with excitation at 530/35 and emission at 580/40 (Cy3) as well as excitation at 635/30 and emission at 700/72 (Cy5). If not indicated otherwise, the image size was […]. The reagent perfused during the experiment (H2O2, SPY) were dissolved in HBSS (Lonza). HBSS solution was continuously perfused during the other time point of the experiment.

[1] = cited from earlier work
Wild-type human SPR = Wild-type human SPR (Homo sapiens, UniProt P35270); settings: cited from earlier work
Sequence of Wild-type human SPR (P35270 whole entry): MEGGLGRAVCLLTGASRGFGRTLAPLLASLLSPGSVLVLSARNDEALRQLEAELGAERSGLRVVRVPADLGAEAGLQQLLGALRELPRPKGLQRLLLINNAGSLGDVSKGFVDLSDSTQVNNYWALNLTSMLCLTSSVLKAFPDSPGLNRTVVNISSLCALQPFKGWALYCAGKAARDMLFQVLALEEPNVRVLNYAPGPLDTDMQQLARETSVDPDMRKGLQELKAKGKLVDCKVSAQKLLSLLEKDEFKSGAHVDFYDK

## OO [H2O2, hydrogen peroxide]
U2OS cells
  sensor response (ratio TMR/SiR, NADPH/NADP^+): decreased NADPH/NADP^+ ratio
U2OS cells; listed as hydrogen peroxide
  sensor response (ratio TMR/SiR, NADPH/NADP^+): sharp decrease of the ratio

## Nc1ccc(S(=O)(=O)Nc2ccccn2)cc1 [sulfapyridine]
[1]
  pKa of the sulfonamide proton: 8.4
U2OS cells; 2 mM perfused on U2OS cells
  sensor response (ratio TMR/SiR): increased ratio TMR/SiR; also recorded: fully open the sensor

## nicotinamide adenine dinucleotide phosphate [NADPH]
Wild-type human SPR
  Kd: 1 µM

## nicotinamide adenine dinucleotide phosphate [NADP^+]
Wild-type human SPR
  Kd: 10 µM
